Measurements as given in ChEMBL document CHEMBL3507680, “University of Dundee, Gates Library screen for HepG2 cell viability”.

Assay: Human HepG2 cell viability assay in 384 well format
Assay type: toxicity, cell-based
Design: dose 125 nL, time 70.5 hour; cytotoxicity at 70.5 h: concentration not given beside the values
Conditions: HepG2 cells, read-out: Inhibition

Row | Structure (SMILES) | cytotoxicity at 70.5 h
1 | CCc1nc(CN(C)C2CCN(CCc3ccncc3)C2)no1 (stereo not given) | -1.6%
2 | Cc1cc(C)c(CNC(=O)N2CCN(c3ccccn3)CC2)c(=O)[nH]1 | 0.786%
3 | O=C(CSc1nnc2n1N=CN(c1ccccc1)C2)c1ccccc1 | -7.5%
4 | CN(CC(=O)N1CCCC1)C(=O)c1cccn1CCc1ccccc1 | -7.1%
5 | Cc1cc2c(cc1CN1CCCCC1CCn1ccnc1C)OCO2 (stereo not given) | -1.13%
6 | CC(C)NC(=O)CC1CC2(CCN(CC3CC3)CC2)Oc2ccccc21 (stereo not given) | 15.7%
7 | Cc1ccc2oc(C(=O)N3CCC(C(=O)N4CCCC4)CC3)cc2n1 | -14.6%
8 | Cc1ccn(CCC(=O)N2CCCC2c2nnc(-c3scnc3C)o2)n1 (stereo not given) | 11.6%
9 | CCn1ncc(NC(=O)CCn2ncc3c(Cl)cccc32)c1C | 7.52%
10 | O=C(NCCC1=CCCCC1)c1cc(-c2ccc(O)cc2)n[nH]1 | -1.77%
11 | CNC(=O)N1CCc2nc(C(=O)Nc3cccnc3)sc2CC1 | -3.13%
12 | COc1cc(F)ccc1-c1ncccc1NC(=O)C(C)C | -7.03%
13 | O=C(NCc1ccccc1CN1CCCC1)Nc1nncs1 | 3.29%
14 | CCn1nc2c(cc1=O)CN(CCCOc1ccc(C#N)cc1)CC2 | 10.4%
15 | Cc1cc(C(=O)NS(C)(=O)=O)ccc1I | -4.1%
16 | CS(=O)(=O)c1cccc(C(=O)NCCCN2CCc3ccccc3C2)c1 | 19.1%
17 | Cc1cccc(C2CCCN(S(=O)(=O)c3cccnc3)C2)n1 (stereo not given) | -2.36%
18 | Cc1cc(C)n(-c2cccc(C(=O)Nc3n[nH]c(C4CCCO4)n3)c2)n1 (stereo not given) | -8.19%
19 | O=S(=O)(C1CC1)N1CCc2ncnc(N3CCOCC3)c2CC1 | -7.75%
20 | CCNc1ncc(CN(CCN(C)C)Cc2ccc(C)s2)cn1 | -7.34%
21 | CC(C)N(Cc1ccc(Cl)c(Cl)c1)C(=O)Cn1cncn1 | 1.18%
22 | COc1cccc(CNC(=O)CCNS(=O)(=O)c2ccc(C)cc2)c1 | -3.42%
23 | CN(Cc1nccs1)c1nccc(N2CCN[C@H]3CS(=O)(=O)C[C@H]32)n1 | 2.95%
24 | Cc1noc(C)c1CN(C)C(=O)c1n[nH]c(N)c1-c1ccccc1 | -5.4%
25 | CCN1CCn2c(C)cnc2C12CCN(C(=O)COC)CC2 | 25%
26 | Cc1nc(C2CCN(c3ccccc3)CC2)no1 | 8.78%
27 | Cc1ccccc1C(C(=O)N1CCN(C(=O)c2ccc[nH]2)CC1)N(C)C (stereo not given) | -15.2%

Row | Structure (SMILES) | cytotoxicity at 70.5 h
28 | Cc1ccc(NCc2ccc(C#N)cc2)c(CN(C)C)c1 | 15.8%
29 | Cc1cc(C(=O)NCC(F)(F)F)c2c(C3CCCN3)noc2n1 (stereo not given) | -7.21%
30 | Cn1ccnc1CN1CCC2(COCCN(Cc3ccsc3)C2)C1 (stereo not given) | -11.4%
31 | CCN1CCN(c2ncc3c(n2)CN(c2cnn(CC)c2)C3=O)CC1 | -6.35%
32 | O=c1cc2c(nn1CN1CCN(c3cccc(Cl)c3)CC1)CCC2 | -6.87%
33 | CCOC(=O)c1coc(N2CCC(N3CCC(O)CC3)CC2)n1 | -7.59%
34 | O=c1[nH]nc2c(S(=O)(=O)N3CCCCC3)cccn12 | -0.253%
35 | Cc1ccc(-n2ncc(C(=O)NCC3CCS(=O)(=O)C3)c2C)cc1 (stereo not given) | -4.72%
36 | CNC(=O)[C@H]1C[C@@H]2CCN(c3nnc(C)s3)C[C@@H]2O1 | -8.39%
37 | CC(Nc1cccc(CN2CCOC2=O)c1)C(=O)NC(N)=O (stereo not given) | 32%
38 | Cc1occc1C(=O)N1CCC2(CC1)CC(OCc1ccccn1)CO2 (stereo not given) | 11.9%
39 | Cc1nc(CCC(N)=O)cc(C2CCCCN2S(C)(=O)=O)n1 (stereo not given) | -1.31%
40 | Cc1cccc(C(=O)N2C[C@@H](OCc3ccncc3)[C@@H]3OCCC[C@@H]32)n1 | -12.5%
41 | Cc1ncsc1C(=O)N1CCC(Nc2cccnn2)CC1 | -7.04%
42 | Cc1ccc(N[C@@H]2CN(Cc3cc(C)on3)C[C@@H]3CCCO[C@@H]32)nn1 | 2.24%
43 | CS(=O)(=O)N1C[C@@H]2CC[C@H](C1)N(C(=O)Cn1nc3ccccc3n1)C2 | 20.9%
44 | O=C(Nc1ccc(-c2ccccc2)cn1)C1CCCN1C(=O)C1CC1 (stereo not given) | 5.65%
45 | Cc1cc2c(cc1C)C(NCc1nnc3n1CCCCC3)CCCO2 (stereo not given) | -7.63%
46 | CCSCCN1CCCN(S(C)(=O)=O)CC1 | -2.21%
47 | Cc1c(NC(=O)C(C)N(C)C)c(=O)n(-c2ccccc2)n1C (stereo not given) | -1.07%
48 | O=C(c1ccc(F)cc1)N1C[C@@H]2OCCN(c3ncccn3)[C@@H]2C1 | 4.02%
49 | CC(Cn1cccn1)C(=O)N1CCC(NS(C)(=O)=O)CC1 (stereo not given) | -6.23%
50 | CN(Cc1ccco1)[C@@H]1CN(Cc2nccs2)C[C@@H]2CCCO[C@@H]21 | -5.05%
51 | Cc1cnc(C(=O)N2C[C@H]3CN(Cc4cccc(F)c4)C(=O)[C@H]3C2)cn1 | 10.5%
52 | Cc1cc(CNC(=O)C2CCN(CC(N)=O)CC2)cc(C)n1 | -6.5%
53 | CN(C)S(=O)(=O)NCc1cccnc1Oc1ccccc1 | -6.53%
54 | O=C(Cc1c(F)cccc1Cl)Nc1cc(N2CCCC2)ncn1 | -2.78%

Row | Structure (SMILES) | cytotoxicity at 70.5 h
55 | O=S(=O)(CC1CCCN1S(=O)(=O)c1cccnc1)c1ccccc1 (stereo not given) | -8.38%
56 | CCC(NC1CCN(S(C)(=O)=O)CC1)c1cccs1 (stereo not given) | -15.6%
57 | CCC(NC(=O)CC1CCN(CC)CC1)c1cn2cccnc2n1 (stereo not given) | -5.63%
58 | O=C(O)Cc1cnc(-c2c(Cl)cccc2Cl)s1 | -12.9%
59 | COC(=O)c1ccc(-c2cc(C(F)(F)F)cc(N(C)C)n2)cc1 | -6.66%
60 | Cc1cc(NC(=O)NCC(c2ccc(C)o2)N2CCOCC2)n(C)n1 (stereo not given) | 21%
61 | CCN(CC)Cc1ccc(C(=O)N2CCCC2Cn2cccn2)cc1 (stereo not given) | -7.71%
62 | O=C(NCCc1nccs1)c1n[nH]c2c1CCC2 | -11.1%
63 | COc1cccc(C(CO)NC(=O)Cc2ccc(F)c(Br)c2)c1 (stereo not given) | -3.64%
64 | Cc1ccc(C(=O)NC2CCN(C(=O)NCc3ccccn3)CC2)o1 | -8.93%
65 | Cc1nc(CN2CCN3C[C@H](Oc4cncnc4)C[C@H]3C2)cs1 | 5.24%
66 | Cn1cnc(S(=O)(=O)N2CC3(CCN(CC4CC4)C3)C2)c1 | 14.6%
67 | CN(C)CCNCC1COCc2c(-c3ccnn3C)nnn2C1 (stereo not given) | 16.1%
68 | CCC(=O)N(CC)CCc1nccs1 | -9.4%
69 | CCC(O)CN1CCN(C(=O)Cc2ccc(OC)cc2OC)CC1 (stereo not given) | 0.587%
70 | O=C(CN1CCC(c2nnc(C(F)(F)F)o2)CC1)NCc1ccccc1 | -0.907%
71 | COCCN1CCN(Cc2ccc3nsnc3c2)[C@H]2CS(=O)(=O)C[C@H]21 | -5.97%
72 | Cc1ncccc1C(=O)NC1(c2cccc(F)c2)CCOCC1 | -3.77%
73 | NCC(CO)Cc1ccc(OC(F)(F)F)cc1 (stereo not given) | -5.55%
74 | Cc1cc(C)n(Cc2cccc(C(=O)N(CCC#N)CCC#N)c2)n1 | -0.535%
75 | CCC(CC)n1nc(C)cc1NC(=O)CC1CCOCC1 | -8.16%
76 | Cc1nc(C)n(CC2CCCN(Cc3nnc(C(C)(C)C)o3)C2)n1 (stereo not given) | -0.371%
77 | Cc1cccc(-n2cc(C(=O)N3CCn4c(C)nnc4C3)nn2)c1 | 9.22%
78 | COC(=O)c1cccc(-c2c[nH]c(C)n2)c1 | -7.21%
79 | CN(C)CCNc1cc(-c2ncccc2C(F)(F)F)c2cc[nH]c2n1 | -6.02%
80 | CC(C)c1nc2n(n1)CC(NCc1nnc(-c3ccco3)o1)CC2 (stereo not given) | -11.9%
